# Assay results published in patent publication US11530244B2, “Cyclic polypeptides for PCSK9 inhibition” (priority 2018, dated 2022).
# Starred links: 1 amine or outer side, 2 acyl side, 3 side chain; linkers in the order of their positions; H or OH if unused. Positions of bridges follow the written chain, without caps; N, C: chain ends. Non-standard residues stand in square brackets, D forms with d. Residues, ends and D or L forms follow the SMILES beside them. NHCH2C6H4(p)CH2CH2NH = c1cc(CN[*:1])ccc1CCN[*:2]; X61 = O=C(CCCCC(=O)[*:1])NCc1ccc(CC(=O)[*:2])cc1; Ala(imidazol-2-yl) = N[C@@H](Cc1ncc[nH]1)C(=O)O; Trp(5-OH) = N[C@@H](Cc1c[nH]c2ccc(O)cc12)C(=O)O; Phe(4-COOH) = N[C@@H](Cc1ccc(C(=O)O)cc1)C(=O)O; Trp(5-F) = N[C@@H](Cc1c[nH]c2ccc(F)cc12)C(=O)O; Trp(6-F) = N[C@@H](Cc1c[nH]c2cc(F)ccc12)C(=O)O; Isophthaloyl = O=C(c1cccc(C(=O)[*:2])c1)[*:1]; Trp(7-aza) = N[C@@H](Cc1c[nH]c2ncccc12)C(=O)O; Phac(3-amino) = O=C(Cc1cccc(N[*:1])c1)[*:2]; Phe(4-CH2NH2) = NCc1ccc(C[C@H](N)C(=O)O)cc1; Pro(cis-4-F) = O=C(O)[C@@H]1C[C@H](F)CN1; X4 = O=C(CCSCc1cccc(CSCCN[*:1])c1)[*:2]; mXylylene = c1cc(C[*:1])cc(C[*:2])c1; AEF = NCCOc1ccc(C[C@H](N)C(=O)O)cc1; Adipoyl = O=C(CCCCC(=O)[*:2])[*:1]; X34 = O=C(CCC1CCN([*:1])CC1)[*:2]; aThr = C[C@H](O)[C@H](N)C(=O)O; αMeP = C[C@@]1(C(=O)O)CCCN1; dOrn = NCCC[C@@H](N)C(=O)O; Orn = NCCC[C@H](N)C(=O)O; Dab = NCC[C@H](N)C(=O)O; Dap = NC[C@H](N)C(=O)O; X2 = O=C(C[*:2])[*:1]; Ahx = NCCCCCC(=O)O; Mpa = O=C(O)CCS
# Target: PCSK9 (Homo sapiens (Human), UniProt Q8NBP7)
# Sequence (Q8NBP7 153-692): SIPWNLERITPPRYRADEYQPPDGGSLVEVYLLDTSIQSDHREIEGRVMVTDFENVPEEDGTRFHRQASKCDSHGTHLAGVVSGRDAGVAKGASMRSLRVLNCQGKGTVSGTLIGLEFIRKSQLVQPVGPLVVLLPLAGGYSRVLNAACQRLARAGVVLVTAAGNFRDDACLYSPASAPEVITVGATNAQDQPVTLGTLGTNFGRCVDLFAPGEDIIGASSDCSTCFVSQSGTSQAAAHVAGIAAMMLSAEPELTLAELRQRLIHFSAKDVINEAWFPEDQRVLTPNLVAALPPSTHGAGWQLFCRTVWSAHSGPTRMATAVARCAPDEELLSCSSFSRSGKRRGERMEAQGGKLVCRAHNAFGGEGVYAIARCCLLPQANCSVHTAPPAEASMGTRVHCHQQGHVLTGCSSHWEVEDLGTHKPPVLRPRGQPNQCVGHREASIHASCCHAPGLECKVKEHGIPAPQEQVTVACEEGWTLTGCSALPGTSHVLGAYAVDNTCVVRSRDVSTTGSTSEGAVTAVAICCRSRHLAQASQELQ
# Experiment: PCSK9 Alexa FRET Standard assay (displacement of AlexaFluor647 tagged cyclic peptide Reagent A)
# Format: binding
# Settings: PCSK9 Alexa FRET Standard assay, 0.5 nM PCSK9, 20 nM AF cyclic peptide Reagent A; read-out: IC50
# Method: A solution containing 1 nM biotinylated PCSK9+2.5 nM Lance Streptavidin Europium (Strep-Eu) was made in 50 mM HEPES pH 7.4, 0.15 M NaCl, 5 mM CaCl2), 0.01% BSA, and 0.01% Surfactant P20. A separate solution containing 40 nM of the AlexaFluor tagged cyclic peptide was made in the same buffer system. An Echo was used to transfer 0.750 ul of compound to an assay plate followed by the addition of 15 ul of PCSK9+Stept-Eu and 15 ul of AF peptide. The final assay volume was 30.750 ul containing 0.5 nM PCSK9, 1.25 nM Strep-Eu, and 20 nM AF cyclic peptide. The reaction was incubated at room temperature for at least two hours prior to fluorescence measurements using an Envision Multilabel Reader. IC50 values were determined by fitting data to a sigmoidal dose-response curve using nonlinear regression. Ki was then calculated from the IC50 and the KD of AF cyclic peptide. Counts (B-counts) of the europium-labeled PCSK9 were followed to observe if compounds were […]. A fall off of the B-counts likely indicated a false positive of inhibition. Data from this procedure was reported as “A=‘numerical value’ (nanomolar)”
row,IC50,SMILES
1,21 to 50 µM,C[C@@]12CCCN1C(=O)[C@H](Cc1ccc(O)cc1)NC(=O)CN1C(=O)[C@H](N=C(C3CCCCC3)c3ccccc31)NC(=O)[C@H](Cc1c[nH]c3ccc(F)cc13)NC(=O)[C@H](Cc1c[nH]c3ccc(F)cc13)NC(=O)CNC(=O)[C@H](CCCCN)NC(=O)CCSCc1cccc(c1)CSC[C@@H](C(N)=O)NC2=O [Compound 128]
2,21 to 50 µM,NCCCC[C@@H]1NC(=O)CCSCc2cccc(c2)CSC[C@@H](C(N)=O)NC(=O)[C@@H]2CCCN2C(=O)[C@H](Cc2c[nH]c3ncccc23)NC(=O)[C@H](Cc2c[nH]cn2)NC(=O)[C@H](CC(=O)O)NC(=O)[C@H](Cc2c[nH]c3ccc(F)cc23)NC(=O)[C@H](Cc2c[nH]c3ccc(F)cc23)NC(=O)CNC1=O [Compound 235] ([Mpa]KG[Trp(5-F)][Trp(5-F)]DH[Trp(7-aza)]PC-NH2; linker 1-10 via mXylylene)
3,21 to 50 µM,CC(=O)N[C@H]1CCc2cn(nn2)-c2ccc(cc2)C[C@@H](C(N)=O)NC(=O)[C@]2(C)CCCN2C(=O)[C@H](Cc2ccc(O)cc2)NC(=O)[C@H](Cc2cnc[nH]2)NC(=O)[C@H](CC(=O)O)NC(=O)[C@H](Cc2c[nH]c3ccc(F)cc23)NC(=O)[C@H](Cc2c[nH]c3ccc(F)cc23)NC(=O)CNC(=O)[C@H](C)NC1=O [Compound 331]
4,21 to 50 µM,COc1ccc(C[C@@H]2NC(=O)[C@H](Cc3cnc[nH]3)NC(=O)[C@H](CC(=O)O)NC(=O)[C@H](Cc3c[nH]c4ccc(F)cc34)NC(=O)[C@H](Cc3c[nH]c4ccc(F)cc34)NC(=O)[C@@H](C)NC(=O)[C@H](NC(C)=O)CCCCNC(=O)c3ccc(cc3)C[C@@H](C(N)=O)NC(=O)[C@]3(C)CCCN3C2=O)cc1 [Compound 341] (Ac-[dK][dA][Trp(5-F)][Trp(5-F)]DHY(Me)[αMeP][Phe(4-COOH)]-NH2; lactam 1-9)
5,21 to 50 µM,COc1ccc(C[C@@H]2NC(=O)[C@H](Cc3cnc[nH]3)NC(=O)[C@H](CC(=O)O)NC(=O)[C@H](Cc3c[nH]c4ccc(F)cc34)NC(=O)[C@H](Cc3c[nH]c4ccc(F)cc34)NC(=O)[C@@H](C)NC(=O)[C@H](CCCCN)NC(=O)[C@@H](NC(C)=O)CC(=O)NCc3ccc(cc3)C[C@@H](C(N)=O)NC(=O)[C@]3(C)CCCN3C2=O)cc1 [Compound 348] (Ac-DK[dA][Trp(5-F)][Trp(5-F)]DHY(Me)[αMeP][Phe(4-CH2NH2)]-NH2; lactam 1-10)
6,21 to 50 µM,CC(=O)N[C@H]1CNC(=O)COc2ccc(cc2)C[C@@H](C(N)=O)NC(=O)[C@]2(C)CCCN2C(=O)[C@H](Cc2ccc(O)cc2)NC(=O)[C@H](Cc2cnc[nH]2)NC(=O)[C@H](CC(=O)O)NC(=O)[C@H](Cc2c[nH]c3ccc(F)cc23)NC(=O)[C@H](Cc2c[nH]c3ccc(F)cc23)NC(=O)CNC(=O)[C@H](C)NC1=O [Compound 351] (Ac-[Dap]AG[Trp(5-F)][Trp(5-F)]DHY[αMeP]Y-NH2; linker 1-10 via X2)
7,21 to 50 µM,CC(=O)N[C@H]1CCNC(=O)COc2ccc(cc2)C[C@@H](C(N)=O)NC(=O)[C@]2(C)CCCN2C(=O)[C@H](Cc2ccc(O)cc2)NC(=O)[C@H](Cc2cnc[nH]2)NC(=O)[C@H](CC(=O)O)NC(=O)[C@H](Cc2c[nH]c3ccc(F)cc23)NC(=O)[C@H](Cc2c[nH]c3ccc(F)cc23)NC(=O)CNC(=O)[C@H](C)NC1=O [Compound 352] (Ac-[Dab]AG[Trp(5-F)][Trp(5-F)]DHY[αMeP]Y-NH2; linker 1-10 via X2)
8,21 to 50 µM,C[C@@]12CCCN1C(=O)[C@H](Cc1ccc(O)cc1)NC(=O)[C@H](Cc1cnc[nH]1)NC(=O)[C@H](CC(=O)O)NC(=O)[C@H](Cc1c[nH]c3ccc(F)cc13)NC(=O)[C@H](Cc1c[nH]c3ccc(F)cc13)NC(=O)CNC(=O)[C@@H](CCCN)NC(=O)CCSCc1cccc(c1)CSC[C@@H](C(N)=O)NC2=O [Compound 356] ([Mpa][dOrn]G[Trp(5-F)][Trp(5-F)]DHY[αMeP]C-NH2; linker 1-10 via mXylylene)
9,21 to 50 µM,CO[C@H](C)[C@@H]1NC(=O)CCSCc2cccc(c2)CSC[C@@H](C(N)=O)NC(=O)[C@]2(C)CCCN2C(=O)[C@H](Cc2ccc(O)cc2)NC(=O)[C@H](Cc2cnc[nH]2)NC(=O)[C@H](CC(=O)O)NC(=O)[C@H](Cc2c[nH]c3ccc(F)cc23)NC(=O)[C@H](Cc2c[nH]c3ccc(F)cc23)NC(=O)CNC1=O [Compound 375] ([Mpa]T(Me)G[Trp(5-F)][Trp(5-F)]DHY[αMeP]C-NH2; linker 1-10 via mXylylene)
10,21 to 50 µM,COc1ccc(C[C@@H]2NC(=O)[C@H](Cc3ncc[nH]3)NC(=O)[C@H](CC(=O)O)NC(=O)[C@H](Cc3c[nH]c4ccc(F)cc34)NC(=O)[C@H](Cc3c[nH]c4ccc(F)cc34)NC(=O)[C@@H](C)NC(=O)[C@H](C)NC(=O)CCSCc3cccc(c3)CSCCNC(=O)[C@]3(C)CCCN3C2=O)cc1 [Compound 407] (cyclo(A[dA][Trp(5-F)][Trp(5-F)]D[Ala(imidazol-2-yl)]Y(Me)[αMeP][X4]))
11,1 to 12.1 µM,COc1ccc(C[C@@H]2NC(=O)[C@H](Cc3cnc[nH]3)NC(=O)[C@H](CC(=O)O)NC(=O)[C@H](Cc3c[nH]c4ccc(F)cc34)NC(=O)[C@H](Cc3c[nH]c4ccc(F)cc34)NC(=O)[C@@H](C)NC(=O)CCCCC(=O)NCCOc3ccc(cc3)C[C@@H](C(N)=O)NC(=O)[C@]3(C)CCCN3C2=O)cc1 [Compound 410] ([dA][Trp(5-F)][Trp(5-F)]DHY(Me)[αMeP][AEF]-NH2; linker N-8 via Adipoyl)
12,21 to 50 µM,COc1ccc(C[C@@H]2NC(=O)[C@H](Cc3cnc[nH]3)NC(=O)[C@H](CC(=O)O)NC(=O)[C@H](Cc3c[nH]c4ccc(F)cc34)NC(=O)[C@H](Cc3c[nH]c4ccc(F)cc34)NC(=O)[C@@H](C)NC(=O)Cc3cccc(c3)NC(=O)C[C@@H](C(=O)O)NC(=O)[C@]3(C)CCCN3C2=O)cc1 [Compound 413] ([Phac(3-amino)][dA][Trp(5-F)][Trp(5-F)]DHY(Me)[αMeP]D-OH; lactam N-9)
13,0.1 to 1 µM,C[C@@]12CCCN1C(=O)[C@H](Cc1ccc(O)cc1)NC(=O)[C@H](Cc1cnc[nH]1)NC(=O)[C@H](CC(=O)O)NC(=O)[C@H](Cc1c[nH]c3ccc(F)cc13)NC(=O)[C@H](Cc1c[nH]c3ccc(O)cc13)NC(=O)CNC(=O)[C@H](CCCCN)NC(=O)CCSCc1cccc(c1)CSC[C@@H](C(N)=O)NC2=O [Compound 414] ([Mpa]KG[Trp(5-OH)][Trp(5-F)]DHY[αMeP]C-NH2; linker 1-10 via mXylylene)

row,SMILES,IC50
1,COc1ccc(C[C@@H]2NC(=O)[C@H]([C@H](C)O)NC(=O)[C@@H]3C[C@H](F)CN3C(=O)[C@H](Cc3c[nH]c4ccc(F)cc34)NC(=O)[C@H](Cc3c[nH]c4ccc(F)cc34)NC(=O)[C@@H](C)NC(=O)[C@H](C)NC(=O)[C@@H](NC(C)=O)CCNC(=O)c3cccc(c3)C(=O)NCCC[C@@H](C(N)=O)NC(=O)[C@]3(C)CCCN3C2=O)cc1 [Compound 134] (Ac-[Dab]A[dA][Trp(5-F)][Trp(5-F)][Pro(cis-4-F)][aThr]Y(Me)[αMeP][Orn]-NH2; linker 1-10 via Isophthaloyl),21 to 50 µM
2,CC(=O)N[C@H]1CCCc2cn(nn2)-c2ccc(cc2)C[C@@H](C(N)=O)NC(=O)[C@]2(C)CCCN2C(=O)[C@H](Cc2ccc(O)cc2)NC(=O)[C@H](Cc2cnc[nH]2)NC(=O)[C@H](CC(=O)O)NC(=O)[C@H](Cc2c[nH]c3ccc(F)cc23)NC(=O)[C@H](Cc2c[nH]c3ccc(F)cc23)NC(=O)CNC(=O)[C@H](C)NC1=O [Compound 337],21 to 50 µM
3,COc1ccc(C[C@@H]2NC(=O)[C@H](Cc3cnc[nH]3)NC(=O)[C@H](CC(=O)O)NC(=O)[C@H](Cc3c[nH]c4cc(F)ccc34)NC(=O)[C@H](Cc3c[nH]c4ccc(F)cc34)NC(=O)[C@@H](C)NC(=O)CCCCCNC(=O)c3ccc(cc3)C[C@@H](C(N)=O)NC(=O)[C@]3(C)CCCN3C2=O)cc1 [Compound 350] ([Ahx][dA][Trp(5-F)][Trp(6-F)]DHY(Me)[αMeP][Phe(4-COOH)]-NH2; lactam N-9),21 to 50 µM
4,COc1ccc(C[C@@H]2NC(=O)[C@H](Cc3cnc[nH]3)NC(=O)[C@H](CC(=O)O)NC(=O)[C@H](Cc3c[nH]c4cc(F)ccc34)NC(=O)[C@H](Cc3c[nH]c4ccc(F)cc34)NC(=O)[C@@H](C)NC(=O)[C@H](CCCCN)NC(=O)CCc3cn(nn3)-c3ccc(cc3)C[C@@H](C(N)=O)NC(=O)[C@]3(C)CCCN3C2=O)cc1 [Compound 368],21 to 50 µM
5,COc1ccc(C[C@@H]2NC(=O)[C@H](Cc3cnc[nH]3)NC(=O)[C@H](CC(=O)O)NC(=O)[C@H](Cc3c[nH]c4ccc(F)cc34)NC(=O)[C@H](Cc3c[nH]c4ccc(F)cc34)NC(=O)[C@@H](C)NC(=O)CCC3CCN(CC3)C(=O)c3ccc(cc3)C[C@@H](C(N)=O)NC(=O)[C@]3(C)CCCN3C2=O)cc1 [Compound 389] ([X34][dA][Trp(5-F)][Trp(5-F)]DHY(Me)[αMeP][Phe(4-COOH)]-NH2; lactam N-9),21 to 50 µM
6,COc1ccc(C[C@@H]2NC(=O)[C@H](Cc3cnc[nH]3)NC(=O)[C@H](CC(=O)O)NC(=O)[C@H](Cc3c[nH]c4ccc(F)cc34)NC(=O)[C@H](Cc3c[nH]c4ccc(F)cc34)NC(=O)[C@@H](C)NC(=O)[C@H](CCCCN)NC(=O)[C@@H](NC(C)=O)CC(=O)NCc3ccc(cc3)CCNC(=O)[C@]3(C)CCCN3C2=O)cc1 [Compound 411] (Ac-DK[dA][Trp(5-F)][Trp(5-F)]DHY(Me)[αMeP]; linker 1-C via NHCH2C6H4(p)CH2CH2NH),1 to 12.1 µM
7,COc1ccc(C[C@@H]2NC(=O)[C@H](Cc3cnc[nH]3)NC(=O)[C@H](CC(=O)O)NC(=O)[C@H](Cc3c[nH]c4ccc(F)cc34)NC(=O)[C@H](Cc3c[nH]c4ccc(F)cc34)NC(=O)[C@@H](C)NC(=O)CCCCC(=O)NCc3ccc(cc3)CC(=O)NC[C@@H](C(N)=O)NC(=O)[C@]3(C)CCCN3C2=O)cc1 [Compound 412] ([dA][Trp(5-F)][Trp(5-F)]DHY(Me)[αMeP][Dap]-NH2; linker N-8 via X61),1 to 12.1 µM
